The supplement of paper PMC8967900

How the values were obtained:
Test in all cases: selective drug sensitivity score (sDSS, relative to normal bone marrow) (sDSS (score)); higher = more potent and effective on the cell line relative to normal bone marrow cells
Details in all cases: 72 h
MOLT-4 = test system: MOLT-4
ALL-SIL = test system: ALL-SIL
SEM cells = test system: SEM cells
RCH-ACV = test system: RCH-ACV
NALL-1 = test system: NALL-1
DND-41 = test system: DND-41
KASUMI-2 = test system: KASUMI-2
PF-382 = test system: PF-382
COG-LL-402h = test system: COG-LL-402h
KARPAS-45 = test system: KARPAS-45
MHH-CALL-2 = test system: MHH-CALL-2
CCRF-HSB2 = test system: CCRF-HSB2
JURKAT = test system: JURKAT
RPMI-8402 = test system: RPMI-8402
P30-OHKUBO = test system: P30-OHKUBO
HPB-ALL = test system: HPB-ALL
KASUMI-10 = test system: KASUMI-10
MN-60 = test system: MN-60
SUP-B15 = test system: SUP-B15
LC4-1 = test system: LC4-1
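Further: ALL cell lines in 384-well plates, five doses spanning 10,000-fold, each plate scaled between vehicle and 100 µmol/L benzalkonium chloride controls, sDSS an adapted area-under-curve metric.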

Row | Structure (SMILES) | selective drug sensitivity score (MOLT-4) | selective drug sensitivity score (ALL-SIL) | selective drug sensitivity score (SEM cells) | selective drug sensitivity score (RCH-ACV) | selective drug sensitivity score (NALL-1) | selective drug sensitivity score (DND-41) | selective drug sensitivity score (KASUMI-2) | selective drug sensitivity score (PF-382) | selective drug sensitivity score (COG-LL-402h) | selective drug sensitivity score (KARPAS-45) | selective drug sensitivity score (MHH-CALL-2) | selective drug sensitivity score (CCRF-HSB2) | selective drug sensitivity score (JURKAT) | selective drug sensitivity score (RPMI-8402) | selective drug sensitivity score (P30-OHKUBO) | selective drug sensitivity score (HPB-ALL) | selective drug sensitivity score (KASUMI-10) | selective drug sensitivity score (MN-60) | selective drug sensitivity score (SUP-B15) | selective drug sensitivity score (LC4-1)
1 | CO[C@H]1CC[C@H](N2C(=O)CNc3ncc(-c4ccc(C(C)(C)O)nc4)nc32)CC1 [CC-223] (top concentration 10000 nM) | -0.48 | 1.32 | 0.72 | 9.62 | 5.52 | 1.32 | 7.92 | 1.42 | 2.92 | 2.22 | 6.42 | 2.62 | 0.02 | 0.62 | 3.12 | -0.28 | -1.38 | 1.32 | -1.38 | 0.42
2 | CN(C)c1cc2c(cc1Sc1nc3c(N)nccc3n1CCNCC(C)(C)C)OCO2 [CUDC-305] (top concentration 10000 nM) | 6.02 | 3.02 | 5.12 | 4.02 | 0.42 | 5.92 | -0.28 | 3.82 | 3.92 | 5.02 | 1.02 | 8.12 | 1.22 | 1.42 | 1.72 | 4.42 | 3.52 | 1.42 | 3.22 | -0.98
3 | CO[C@H]1C(=O)[C@]2(C)[C@@H](OC)C[C@H]3OC[C@@]3(OC(C)=O)[C@H]2[C@H](OC(=O)c2ccccc2)[C@]2(O)C[C@H](OC(=O)[C@H](O)[C@@H](NC(=O)OC(C)(C)C)c3ccccc3)C(C)=C1C2(C)C [Cabazitaxel] (top concentration 1000 nM) | 18.4 | 19.3 | 19.5 | 22.9 | 11.4 | -4.32 | 17.5 | 10.9 | 17.1 | 18.9 | 15.9 | 21.1 | 18.3 | 15.5 | 20.3 | 11.6 | 12.4 | -5.32 | 21.9 | 22.4
4 | C=CC(=O)Nc1cc2c(Nc3ccc(F)c(Cl)c3)ncnc2cc1OCCCN1CCOCC1 [Canertinib] (top concentration 10000 nM) | -2.14 | 5.16 | 2.56 | 1.26 | -0.94 | 1.36 | 1.86 | -0.54 | 4.86 | -0.24 | 3.16 | 6.36 | -1.14 | -1.54 | 2.26 | 0.76 | 4.66 | -4.14 | 3.16 | 2.76
